The source of these data is US6372772B1, “Inhibitors of redox signaling and methods of using same” (Prolx Pharmaceuticals Corporation, priority 1997, dated 2002).

Assay [1] concerns the target T1, thioredoxin reductase/thioredoxin (Homo sapiens, UniProt Q16881).
T1 sequence (Q16881 1-499 isoform Q16881-5): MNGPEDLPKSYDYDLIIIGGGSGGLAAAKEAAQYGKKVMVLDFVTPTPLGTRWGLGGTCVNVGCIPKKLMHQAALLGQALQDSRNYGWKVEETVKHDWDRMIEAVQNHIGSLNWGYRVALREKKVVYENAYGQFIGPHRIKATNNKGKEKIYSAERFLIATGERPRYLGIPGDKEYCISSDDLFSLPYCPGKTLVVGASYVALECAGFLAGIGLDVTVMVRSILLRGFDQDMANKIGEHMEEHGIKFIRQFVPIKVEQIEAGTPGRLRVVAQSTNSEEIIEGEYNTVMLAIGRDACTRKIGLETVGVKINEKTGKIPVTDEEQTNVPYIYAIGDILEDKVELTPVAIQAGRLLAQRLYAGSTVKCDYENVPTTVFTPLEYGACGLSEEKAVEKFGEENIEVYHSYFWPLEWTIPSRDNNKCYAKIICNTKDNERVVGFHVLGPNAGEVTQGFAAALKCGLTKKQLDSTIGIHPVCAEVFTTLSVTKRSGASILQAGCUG
Description: thioredoxin reductase/thioredoxin-dependent insulin reduction assay. The assay is classed as biochemical.

The test system of assay [2] is human MCF-7 breast cancer. The assay is described as follows: MCF-7 breast cancer xenografts in scid mice. In kind it is in vivo. As to conditions: for tumor inhibition: MCF-7 tumor system.
For the next assay, the system named is HL-60 leukemia. The assay is described as follows: HL-60 leukemia xenografts in scid mice. The assay is classed as in vivo. As to conditions: for antitumor activity against HL-60 leukemia: a number of the animals without tumor at day 45.
Assay [3] deals with thioredoxin-dependent cell proliferation. The assay is described as follows: thioredoxin- versus serum-dependent cell proliferation in culture. In kind it is cell-based.
The test system of a further assay is tumors in the colon. Description: min (multiple intestinal neoplasia) mouse chemoprevention. As to conditions: in the diet at 250 ppm. The assay is classed as in vivo. An excerpt:
The min mouse has a germline mutation in the APC gene seen in human familial adenomatous polyposis (FAP). This model was chosen because of its genetic basis and as an alternative to chemically-induced models of colon cancer. The majority of the tumors that develops in the adult min mice are in the small intestine, although tumors are first diagnosed in the colon. FAP represents a high risk group of subjects with a readily identifiable early end-point marker that is suitable for trials of novel chemopreventive agents.

A further assay concerns the target T2, thioredoxin reductase (Homo sapiens, UniProt Q16881).
T2 sequence (Q16881 1-499 isoform Q16881-5): T1 sequence (Q16881 1-499 isoform Q16881-5)
The assay is described as follows: biochemical.

For assay [4], the system named is NCI's panel of 60 human cancer cell lines. As to conditions: cited from earlier work.
Another assay deals with T3, glutathione reductase (Homo sapiens, UniProt P00390).
T3 sequence (P00390 1-479 isoform P00390-2): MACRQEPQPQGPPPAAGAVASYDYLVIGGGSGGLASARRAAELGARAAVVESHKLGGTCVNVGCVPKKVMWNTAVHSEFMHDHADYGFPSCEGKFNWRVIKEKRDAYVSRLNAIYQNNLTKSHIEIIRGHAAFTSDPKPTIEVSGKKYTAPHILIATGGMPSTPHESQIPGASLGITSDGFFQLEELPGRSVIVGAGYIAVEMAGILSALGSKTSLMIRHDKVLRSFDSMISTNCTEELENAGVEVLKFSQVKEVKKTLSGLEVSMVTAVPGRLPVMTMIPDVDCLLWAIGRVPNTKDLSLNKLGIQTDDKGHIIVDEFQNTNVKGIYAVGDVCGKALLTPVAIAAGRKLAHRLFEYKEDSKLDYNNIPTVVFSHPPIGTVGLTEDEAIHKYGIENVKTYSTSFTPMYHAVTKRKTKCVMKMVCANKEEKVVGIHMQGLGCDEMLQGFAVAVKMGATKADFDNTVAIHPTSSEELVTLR
Description: glutathione reductase assay (DTNB reduction). In kind it is biochemical. As to conditions: for IC50: read-out: IC50GR (μg/ml) (converted).

A further assay concerns leukemia cell line. As to conditions: cited from earlier work.
The test system of assay [5] is MCF-7 breast cancer cells. As to conditions: read-out: EC50 for thioredoxin growth stimulation; cited from earlier work.
Setting [6] is: Table III, read-out: in vitro IC50 TR/Trx (μg/ml) (converted).
[7] abbreviates: Table I, 30 min preincubation, read-out: IC50 (μg/ml) in TR/Trx Assay (converted).
Where [8] appears, read: Table II, read-out: IC50TRTrx (μg/ml) (converted).
[9] abbreviates: ratio of IC50 TR alone and IC50 TR/Trx assay.
Where [10] appears, read: mean 50% growth inhibition concentration, entire cell line panel.
The mark [11] stands for this setting: mean 50% growth inhibition concentration, leukemias.

One may read the pIC50 as the negative decadic logarithm of the IC50, by convention in mol/L. For orientation: pEC50 means −log10 of the EC50, conventionally taken in molar units.

pEC50, pIC50: −log10 of the molar value. Converted amounts (≈) assume the structure as drawn. Where two headings read alike, the source gives them in different places. Some results are limits rather than exact numbers.

With `c1ccc(CSSc2ncc[nH]2)cc1` [DLK-36, benzyl-2-imidazolyl disulfide], the IC50 in assay [1] (setting [6]) is 180000 nM. Moreover, the “T/C % tumor volume at day 28” value in assay [2] (25 mg/kg/day for 14 days) is reported as 100.7%; in assay [2] (40 mg/kg/day for 14 days) it was 23.7%. Besides, the tumor inhibition in assay [2] stood at 65%. Also, the “antitumor activity against HL-60 leukemia” value in the assay with HL-60 leukemia was “showed antitumor activity”.
As to `CCC(C)SSc1ncc[nH]1` (centres unmarked) [IV-2, 1-methylpropyl 2-imidazolyl disulfide], in assay [3], the “inhibition of thioredoxin- versus serum-dependent cell proliferation” value is reported as “greater inhibition of thioredoxin than serum-dependent cell proliferation”. The “size of remaining tumors” value in the assay on tumors in the colon (p<0.001 compared to control) is “significant reduction in the size of remaining tumors”. For the same molecule, in the assay on tumors in the colon (p=0.0160), the “reduction of number of tumors in the colon” value turned out to be 70%. In addition, the entries for the “T/C % tumor volume at day 28” value in assay [2] (5 mg/kg/day for 14 days), in assay [2] (10 mg/kg/day for 14 days) and in assay [2] (15 mg/kg/day for 14 days) were 56.7%, 45.9% and 2.3%, respectively. Also, the tumor inhibition in [2] is 98%. The “antitumor activity against MCF-7 xenografts” value in assay [2] (scid mice) was “dose-dependent antitumor activity”. For the same molecule, in the assay on HL-60 leukemia, the “antitumor activity against HL-60 xenografts” value is recorded as “dose-dependent antitumor activity”. The “antitumor activity against HL-60 leukemia” value with HL-60 leukemia is given as “showed antitumor activity”.
Take `CCCC(=O)OC1C2C(CC1(C)C)C(=O)C13OC1C(=O)C1(CO1)C23C` (centres unmarked) [NSC 163027]: the pIC50 against thioredoxin reductase is 4.84. Moreover, the IC50 in assay [1] (setting [7]) is 1090 nM; in [1] (setting [8]), 1090 nM; in [1] (setting [6]) it was not above 1440 nM; at glutathione reductase (Table II), 115000 nM. Further, the TR/TRTrx in assay [1] (setting [9]) worked out at 13.2. For the same molecule, the “GI50 (μg/ml) All Tumors” value in [4] (setting [10]) is 3.1 µg/mL (≈ 8.9 µM). For the same molecule, the “GI50 (μg/ml) Leukemias” value in the assay with leukemia cell line (setting [11]) was 0.6 µg/mL (≈ 1.72 µM).
As for `Cc1cc2c(c(O)c1-c1c(C)cc(O)c3c1C(=O)C=CC3=O)C(=O)C=CC2=O` [NSC 208731], the IC50 in [1] (setting [7]) was 267 nM; in [1] (setting [8]), 267 nM; in assay [1] (setting [6]), not above 267 nM; at glutathione reductase (Table II), 13400 nM. Further, the TR/TRTrx in assay [1] (setting [9]) amounted to 1.0. In assay [4] (setting [10]), the “GI50 (μg/ml) All Tumors” value is 0.6 µg/mL (≈ 1.6 µM). For the same molecule, in the assay with leukemia cell line (setting [11]), the “GI50 (μg/ml) Leukemias” value was 0.03 µg/mL (≈ 0.0801 µM).
On to `C=C(CN(C)C)C(=O)c1ccc(C)cc1C` [NSC 382000], for which the IC50 is 460 nM in [1] (setting [7]), 460 nM in assay [1] (setting [8]), not above 460 nM in assay [1] (setting [6]) and 13800 nM at glutathione reductase (Table II). Besides, in [1] (setting [9]), the TR/TRTrx came out at 1.0. Moreover, in assay [4] (setting [10]), the “GI50 (μg/ml) All Tumors” value is 1.0 µg/mL (≈ 4.6 µM). Moreover, the “GI50 (μg/ml) Leukemias” value in the assay on leukemia cell line (setting [11]) was 0.1 µg/mL (≈ 0.46 µM).
Take `CC1COC2C3=C(C(=O)C=CC3=O)C3OC(=O)C4CCC5CC1CCC52C43` (centres unmarked) [NSC 401005]: the IC50 in assay [1] (setting [7]) is 163 nM; in [1] (setting [8]), 163 nM; in [1] (setting [6]), not above 271 nM; on glutathione reductase (Table II), 40700 nM. For the same molecule, in assay [1] (setting [9]), the TR/TRTrx is 1.7. For the same molecule, the “GI50 (μg/ml) All Tumors” value in assay [4] (setting [10]) was 7.6 µg/mL (≈ 20.6 µM). Moreover, in the assay with leukemia cell line (setting [11]), the “GI50 (μg/ml) Leukemias” value was 1.8 µg/mL (≈ 4.89 µM).
Turning to `CC(C)(CN1C(=O)C(Cl)=C(Cl)C1=O)CN1C(=O)C(Cl)=C(Cl)C1=O` [NSC 617145], the negative-log IC50 (pIC50) in assay [1] (IC50 (μg/ml) in TR/Trx Assay) was 6.52; in [1] (IC50TRTrx (μg/ml)), 6.52; in [1] (in vitro IC50 TR/Trx (μg/ml)), not below 5.90; at glutathione reductase, 3.90. Further, the TR/TRTrx in assay [1] (setting [9]) was determined as 0.8. Further, the “GI50 (μg/ml) All Tumors” value in [4] (setting [10]) was 4.4 µg/mL (≈ 11 µM). The “GI50 (μg/ml) Leukemias” value in the assay with leukemia cell line (setting [11]) is 0.2 µg/mL (≈ 0.5 µM).
For the molecule `CCc1cccc(CC)c1NC(=O)/C(Cl)=C(/Cl)C(=O)O` [NSC 618605], the IC50 is 380 nM in assay [1] (setting [7]), 380 nM in assay [1] (setting [8]), not above 1580 nM in [1] (setting [6]) and 108000 nM at glutathione reductase (Table II). In addition, the TR/TRTrx in assay [1] (setting [9]) turned out to be 0.8. In addition, the “GI50 (μg/ml) All Tumors” value in assay [4] (setting [10]) is 7.2 µg/mL (≈ 22.8 µM). The “GI50 (μg/ml) Leukemias” value in the assay with leukemia cell line (setting [11]) is 2.5 µg/mL (≈ 7.91 µM).
As for `COC(=O)C(CBr)CBr` [NSC 620109], in assay [1], the TR/TRTrx is recorded as 0.3. For the same molecule, the IC50 in [1] (read-out: IC50 (μg/ml) in TR/Trx Assay (converted)) was 1230 nM; in [1] (read-out: IC50TRTrx (μg/ml) (converted)), 1230 nM; in assay [1] (read-out: in vitro IC50 TR/Trx (μg/ml) (converted)), not above 1920 nM; on glutathione reductase it was 127000 nM. In addition, the “GI50 (μg/ml) All Tumors” value in assay [4] was 1.1 µg/mL (≈ 4.23 µM). In addition, in the assay with leukemia cell line, the “GI50 (μg/ml) Leukemias” value is 0.2 µg/mL (≈ 0.769 µM).
Turning to `Cc1ccc(NC(=O)/C(Cl)=C(/Cl)C(=O)O)cc1` [NSC 622378], the IC50 is 438 nM in [1] (setting [7]), 438 nM in [1] (setting [8]), not above 1820 nM in assay [1] (setting [6]) and 73000 nM at glutathione reductase (Table II). Further, the TR/TRTrx in assay [1] (setting [9]) worked out at 0.8. In [4] (setting [10]), the “GI50 (μg/ml) All Tumors” value is 5.0 µg/mL (≈ 18.2 µM). The “GI50 (μg/ml) Leukemias” value with leukemia cell line (setting [11]) was 1.6 µg/mL (≈ 5.84 µM).
Regarding `Cc1cccc2c1c1ccc3c(c1n2C)C(=O)C=CC3=O` [NSC 645330], on thioredoxin reductase, the pIC50 was 3.74. Besides, the IC50 is 6900 nM in assay [1] (setting [7]), 6870 nM in [1] (setting [8]), not above 18200 nM in assay [1] (setting [6]) and 182000 nM on glutathione reductase (Table II). Further, in assay [1] (setting [9]), the TR/TRTrx is on record as 26.5. For the same molecule, the “GI50 (μg/ml) All Tumors” value in assay [4] (setting [10]) is 1.5 µg/mL (≈ 5.45 µM). Besides, in the assay on leukemia cell line (setting [11]), the “GI50 (μg/ml) Leukemias” value is 0.3 µg/mL (≈ 1.09 µM).
As for `O=[N+]([O-])C(=C(Sc1ccccc1)Sc1ccccc1)C(Cl)=C(Cl)Cl` [NSC 665103], the pIC50 at thioredoxin reductase was 4.92. For the same molecule, the IC50 in assay [1] (setting [7]) was 239 nM; in assay [1] (setting [8]) it was 239 nM; in assay [1] (setting [6]), not above 239 nM; on glutathione reductase (Table II), 76400 nM. Moreover, the TR/TRTrx in [1] (setting [9]) is reported as 50.0. Moreover, the “GI50 (μg/ml) All Tumors” value in assay [4] (setting [10]) was 0.4 µg/mL (≈ 0.955 µM). Further, the “GI50 (μg/ml) Leukemias” value in the assay on leukemia cell line (setting [11]) is 0.04 µg/mL (≈ 0.0955 µM).
As to thioredoxin, the pEC50 in assay [5] is 6.46.
